Like-named read-outs stand apart in the source and are kept apart here.

In data set [1] the test system is A549 cells. Put plainly: Apoptosis, Cell Death Detection ELISA (DNA fragmentation) in A549 cells. It counts as cell-based, human. To be noted: A549, GW501 1 μM with SR13904 15 μM. Here is the method:
Referring now to FIG. 6, SR13904 treatment of cancer cells results in increased apoptosis. A549 cells (2×10^4 cells/well) were incubated in 0.5% media (96 well plates) SR13904 for 40 h. The relative degrees of apoptosis were determined using a Cell Death Detection ELISA (Roche). SR represents SR13904. ***p=<0.001 SR vs. SR+GW501.
SR13904 treatment results in increased apoptosis. Down-regulation of PPARδ, either by genetic knockout or by the treatment with 13-S—HODE (15-lipoxygenase-1 product), induces apoptosis in colorectal cancer cells. The effects of SR13904 (15 μM) GW501 (1 μM) on survival of A549 cells (0.5% serum) was determined. Relative degrees of apoptosis were measured using a DNA fragmentation assay.

In data set [2] the target is T1, PPARδ (Homo sapiens, UniProt Q03181).
T1 construct: expressed in transfected cells; host or cells: U2-OS (human bone cancer line)
T1 sequence (Q03181 1-441): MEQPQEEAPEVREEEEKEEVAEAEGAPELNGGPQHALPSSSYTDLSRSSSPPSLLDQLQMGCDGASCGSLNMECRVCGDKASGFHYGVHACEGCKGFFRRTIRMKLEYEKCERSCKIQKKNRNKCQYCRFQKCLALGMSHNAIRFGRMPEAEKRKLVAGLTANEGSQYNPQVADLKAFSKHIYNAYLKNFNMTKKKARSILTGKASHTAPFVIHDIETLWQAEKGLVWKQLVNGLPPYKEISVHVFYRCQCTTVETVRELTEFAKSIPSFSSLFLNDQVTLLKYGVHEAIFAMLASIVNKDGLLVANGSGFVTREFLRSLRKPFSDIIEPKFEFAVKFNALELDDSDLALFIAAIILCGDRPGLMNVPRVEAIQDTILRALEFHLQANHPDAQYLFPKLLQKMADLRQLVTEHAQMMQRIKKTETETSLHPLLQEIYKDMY
The experiment in a line: PPRE promoter/luciferase reporter (transactivation) assay in U2-OS cells. It counts as cell-based. The protocol:
(§1) General Testing Procedures. Each ligand was screened for PPARδ binding and transactivation activity through the use of two complementary reporter assays as described below. In both systems, transfection efficiency was standardized by co-transfection of a control Renilla luciferase. U2-OS (human bone cancer line) cells were used for both assays because this is the cell line of choice for screening PPAR ligands. At 18 h post-transfection, GW 501, with and without the ligands of the disclosure, was added to the cells and incubated for an additional 24 h. The cells were then harvested and luciferase activities profiled.
A promoter/luciferase reporter assay. This assay involves co-transfection of a PPARδ expression vector and a plasmid containing a luciferase gene under the control of PPARδ responsive DNA element (three copies of a consensus PPAR response element, PPRE). This assay was used to directly test ligand effects on PPARδ-responsive genes.
(§2) Referring to FIG. 3, U2-OS cells were transiently transfected with appropriate expression and reporter vectors. Ligands were added to the cell cultures 24 h post-transfection and incubated for an additional 16 h. Lipoprotein lipase (LPL; 2 μg/ml) was added with VLDL (5 μg/ml) to release PPARδ-active triglycerides. FIG. 3A: PPARδ LBD/Gal4/UAS-tk-luc competition assays with VLDL SR13904 (0-10 μM). The reporter activation (fold increase over blank) is presented relative to GW501516 at 7 nM (fold increase over blank=100). FIG. 3B: PPRE reporter assays using 0, 1, and 10 μM SR13904+VLDL. All assays were repeated in triplicate.
Background: Reporter assays use an easily measured gene product as a stand-in for the process of interest.

For data set [3], the target named is T2, LBD of PPARδ protein (Homo sapiens, UniProt Q03181).
T2 construct: co-transfection of a plasmid containing an LBD/Gal4 fusion construct; expressed in transfected cells; host or cells: U2-OS (human bone cancer line)
T2 sequence (Q03181 211-439 limits assumed): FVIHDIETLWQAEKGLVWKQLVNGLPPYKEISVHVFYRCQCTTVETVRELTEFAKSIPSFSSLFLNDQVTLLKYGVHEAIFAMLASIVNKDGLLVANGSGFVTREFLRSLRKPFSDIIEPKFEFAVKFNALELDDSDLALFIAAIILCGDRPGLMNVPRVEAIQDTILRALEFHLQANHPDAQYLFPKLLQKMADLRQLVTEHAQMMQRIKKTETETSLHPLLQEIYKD
The experiment in a line: PPARδ ligand-binding domain (LBD)/Gal4 UAS-tk-luciferase reporter assay in U2-OS cells. To be noted: from GAL-4 binding and PPRE transactivation reporter screens. It counts as cell-based. The protocol:
as §1
A PPARδ protein ligand-binding domain (LBD) assay. The LBD assay consists of cellular co-transfection of a plasmid containing an LBD/Gal4 fusion construct and a vector containing a UAS-tk-luciferase reporter construct under the transcriptional control of a Gal4 upstream activating sequence. This system was used to test for binding activities of candidate PPARδ ligands to the LBD of PPARδ protein.
as §2

Data set [4] is described as follows: Proliferation assay of Table 2 (cell line not stated). It is filed as cell-based. Particulars: concentration that inhibits cell viability (or growth) by 50% relative to vehicle control; read-out: Prolif IC50. The protocol: (§3) The LANTHA SCREEN™ TR-FRET PPARδ Competitive Binding Assay was conducted for a variety of compounds according to the instructions provided by the manufacturer (Invitrogen). In addition, proliferation assays were conducted. In Table 2, “Prolif IC50” is the concentration that inhibits cell viability (or growth) by 50% relative to a vehicle control, and “TR-F binding IC50 (μM)” is the concentration that competes binding by a labeled pan-agonist to the ligand binding domain of PPAR delta, by 50%.

For data set [5], the target named is T3, ligand binding domain of PPAR delta (Homo sapiens, UniProt Q03181).
T3 construct: purchased Invitrogen
T3 sequence (Q03181 211-439 limits assumed): T2 sequence (Q03181 211-439 limits assumed)
Put plainly: LANTHA SCREEN TR-FRET PPARδ Competitive Binding Assay. The protocol:
as §3
A general note: In TR-FRET formats the signal depends on donor and acceptor labels being close together.

Data set [6] is described as follows: Solubility in DMSO (noted in binding assay column). It counts as physicochemical.
[7] abbreviates: competes binding by a labeled pan-agonist by 50%, * = determined by approximation from a semi log graph, read-out: TR-F binding IC50.

As for `Cc1cc(SCc2sc(-c3ccc(C(F)(F)F)cc3)nc2C)ccc1OCC(=O)O` [GW 501516, reference compound], the “effect of co-treatment on SR13904-induced apoptosis” value in data set [1] was “markedly alleviated”.

Turning to `CCCc1cc(SCc2sc(-c3cccc4ccccc34)nc2C)ccc1OCC(=O)O` [SR 13905], the “inhibition of PPARδ-mediated transactivation” value in data set [2] was “appear to inhibit”.

With `Cc1cc(SCc2sc(-c3ccc(C(C)(C)C)cc3)nc2C)ccc1OCC(=O)O` [SR 13906], in data set [2], the “inhibition of PPARδ-mediated transactivation” value is reported as “appear to inhibit”. The “PPARδ ligand profile (agonist/antagonist)” value in data set [3] is reported as “low-affinity agonists”.

Turning to `CCCc1cc(SCc2sc(-c3ccc(C(C)(C)C)cc3)nc2C)ccc1OCC(=O)O` [SR 13907], the “inhibition of PPARδ-mediated transactivation” value in data set [2] is given as “appear to inhibit”. In data set [3], the “PPARδ ligand profile (agonist/antagonist)” value is “low-affinity agonists”.

Turning to `CCCc1cc(SCc2sc(-c3ccc(CC)cc3)nc2C)ccc1OCC(N)=O` [SR 13910], the “PPARδ ligand profile (agonist/antagonist)” value in data set [3] is “low-affinity agonists”.

Consider `Cc1cc(SCc2sc(-c3ccc4ccccc4c3)nc2C)ccc1OCC(=O)O` [SR 13961], for which the “PPARδ ligand profile (agonist/antagonist)” value in data set [3] is “low-affinity agonists”.

With `Cc1cc(SCCOC2c3ccccc3-c3ccccc32)ccc1OCC(=O)O` [SRI-010248], the IC50 is 9 µM in data set [4] and above 30 µM in data set [5] (setting [7]).

For `Cc1cc(SCCOC(c2ccc(F)cc2)c2ccc(F)cc2)ccc1OCC(=O)O` [SRI-010249], the IC50 was determined as 5.4 µM in data set [4]; 0.85 µM in data set [5] (setting [7]); 1.2 µM in data set [5] (repeat determination of TR-F binding IC50, read-out: repeat TR-F).

For the compound `Cc1cc(SCCN2c3ccccc3Sc3ccc(C(F)(F)F)cc32)ccc1OCC(=O)O` [SRI-010250], the IC50 in data set [4] amounted to 7 µM; in data set [5] (setting [7]) it was 3.8 µM.

Consider `Cc1cc(SCCN2c3ccccc3Sc3ccccc32)ccc1OCC(=O)O` [SRI-010251], for which the IC50 in data set [4] was 7.6 µM; in data set [5] (setting [7]), 13.7 µM.

Consider `Cc1cc(SCCn2c3ccccc3c3ccccc32)ccc1OCC(=O)O` [SRI-010252], for which the results for the IC50 in data set [4] and in data set [5] (setting [7]) were 9 µM and above 30 µM, respectively.

For the compound `Cc1cc(SCCOC(c2ccccc2)c2ccccc2)ccc1OCC(=O)O` [SRI-010253], the IC50 in data set [4] stood at 14 µM; in data set [5] (setting [7]), 3 µM.

Consider `Cc1cc(SCCOC(c2ccccc2)c2ccc(C(F)(F)F)cc2)ccc1OCC(=O)O` (stereo not shown) [SRI-010254], for which the IC50 in data set [4] stood at 7.4 µM; in data set [5] (setting [7]), 1.3 µM.

`Cc1cc(SCC(=O)N(Cc2ccccc2)C(c2ccccc2)c2ccccc2)ccc1OCC(=O)O` [SRI-010255]: the IC50 in data set [4] is 5 µM; in data set [5] (setting [7]), above 12 µM.

For the compound `Cc1cc(SCC(=O)N(Cc2ccc(Cl)cc2)C(c2ccccc2)c2ccccc2)ccc1OCC(=O)O` [SRI-010256], in data set [5] (setting [7]), the IC50 was above 18 µM.

Regarding `Cc1cc(SCC(=O)N(Cc2ccc(F)c(F)c2)C(c2ccccc2)c2ccccc2)ccc1OCC(=O)O` [SRI-010257], the IC50 is 9.1 µM in data set [4] and above 23 µM in data set [5] (setting [7]).

On to `Cc1cc(SCC(=O)N(Cc2ccc(Cl)cc2Cl)C(c2ccccc2)c2ccccc2)ccc1OCC(=O)O` [SRI-010258], for which the IC50 in data set [4] was 4.8 µM; in data set [5] (setting [7]), above 14 µM.

In the case of `COc1ccc(CN(C(=O)CSc2ccc(OCC(=O)O)c(C)c2)C(c2ccccc2)c2ccccc2)cc1OC` [SRI-010259], the IC50 is above 40 µM in data set [4] and above 30 µM in data set [5] (setting [7]).

Regarding `Cc1cc(SCC(=O)NC(c2ccccc2)c2ccccc2)ccc1OCC(=O)O` [SRI-010260], in data set [4], the IC50 is above 40 µM. Moreover, in data set [6], the “solubility in DMSO” value is reported as “not soluble in DMSO”.

Consider `Cc1cc(SCCC(=O)N(Cc2ccccc2)C(c2ccccc2)c2ccccc2)ccc1OCC(=O)O` [SRI-010261], for which the figures for the IC50 in data set [4] and in data set [5] (setting [7]) were 8.5 µM and above 20 µM, respectively.

Consider `Cc1cc(SCCC(=O)N(Cc2ccc(Cl)cc2)C(c2ccccc2)c2ccccc2)ccc1OCC(=O)O` [SRI-010262], for which the IC50 in data set [4] is 5.6 µM; in data set [5] (setting [7]), above 18 µM.

As for `Cc1cc(SCCC(=O)N(Cc2ccc(F)c(F)c2)C(c2ccccc2)c2ccccc2)ccc1OCC(=O)O` [SRI-010263], the results for the IC50 in data set [4] and in data set [5] (setting [7]) were 9.1 µM and above 25 µM, respectively.

Turning to `Cc1cc(SCCC(=O)N(Cc2ccc(Cl)cc2Cl)C(c2ccccc2)c2ccccc2)ccc1OCC(=O)O` [SRI-010264], the IC50 in data set [4] is 5.9 µM; in data set [5] (setting [7]) it was above 25 µM.

Take `COc1ccc(CN(C(=O)CCSc2ccc(OCC(=O)O)c(C)c2)C(c2ccccc2)c2ccccc2)cc1OC` [SRI-010265]: the IC50 was above 40 µM in data set [4] and above 30 µM in data set [5] (setting [7]).

In the case of `Cc1cc(SCCC(=O)NC(c2ccccc2)c2ccccc2)ccc1OCC(=O)O` [SRI-010266], the IC50 in data set [4] is above 40 µM; in data set [5] (setting [7]) it was above 30 µM.

The record behind these values is patent US20090163481A1, “PPAR-DELTA LIGANDS AND METHODS OF THEIR USE” (priority 2007, published 2009).
